Each structure is given as a SMILES string.

The test system of this assay is Rat Aorta. Description: Inhibition of calcium chloride-induced contraction of depolarized rat aorta (vascular smooth muscle segments in tissue bath). In kind it is cell-based, male Sprague-Dawley rats. As to conditions: contraction induced by 1.0 mM calcium chloride; for inhibition at 10 µM / inhibition at 1 µM: Rattus norvegicus, read-out: Percent Inhibition of Contraction of Rat Aorta; for inhibition at 10 µM: at 10^-5 M. On the procedure: The property may be observed in a test in which segments of vascular smooth muscle obtained from male Sprague-Dawley rats are suspended in physiological salt solution in a tissue bath instrumented for recording contractions. After the tissue has been equilibrated, washed in calcium-free physiological salt solution and then depolarized, 1.0 mM calcium chloride is re-added to induce contraction. […] From measuring the initial contraction as well as the second contraction in the presence of the test compound, the extent of inhibition may be calculated.

As to `CCOC(=O)C1=C(C)NC(C)(C#N)[C@]2(C(=O)OCC)C(O)c3ccccc3[C@H]12` (stereo partly drawn) [Compound IIIB-1, 4a(R,S),9a(S,R)-Diethyl 1-cyano-1,3-dimethyl-2,4a,9,9a-tetrahydro-9-hydroxy-9H-indeno[2,1-c]pyridine-4,9a-dicarboxylate], the “Percent Inhibition of Contraction of Rat Aorta” value (at 10^-6 M) was determined as 52%.

What is called inhibition is how much of the control response was suppressed. As for `CCOC(=O)C1=C(C)N[C@@](C)(C#N)[C@]2(C(=O)OCC)[C@H](Cl)c3ccccc3[C@H]12` (relative stereo) [Compound V-1, 4a(R,S),9a(S,R)-Diethyl 9-chloro-1-cyano-2,4a,9,9a-tetrahydro-1,3-dimethyl-9H-indeno[2,1-c]pyridine-4,9a-dicarboxylate], the inhibition at 10 µM turned out to be 24%.

With `CCOC(=O)C1=C(C)N[C@](C)(C#N)[C@]2(C(=O)OCC)[C@@H](OC(C)=O)c3ccccc3[C@H]12` (relative stereo) [Compound IVB-1, 4a(R,S),9a(S,R)-Diethyl 9-acetoxy-1-cyano-2,4a,9,9a-tetrahydro-1,3-dimethyl-9H-indeno[2,1-c]pyridine-4,9a-dicarboxylate], the inhibition at 1 µM (at 10^-6 M) turned out to be 6%.

As for `COC(=O)C1=C(C)N[C@@](C)(C#N)[C@]2(C(=O)OC)[C@@H](O)c3cc(OC)ccc3[C@H]12` (relative stereo) [Compound IIIA-2, 4a(R,S),9a(S,R)-Dimethyl 1-cyano-9-hydroxy-7-methoxy-2,4a,9,9a-tetrahydro-1,3-dimethyl-9H-indeno[2,1-c]pyridine-4,9a-dicarboxylate hydrate], the inhibition at 1 µM (at 10^-6 M) worked out at 4%.

In the case of `CCOC(=O)C1=C(C)N[C@@](C)(C#N)[C@]2(C(=O)OCC)[C@@H](OC(C)=O)c3ccccc3[C@H]12` (relative stereo) [Compound IVA-1, 4a(R,S),9a(S,R)-Diethyl 9-acetoxy-1-cyano-2,4a,9,9a-tetrahydro-1,3-dimethyl-9H-indeno[2,1-c]pyridine-4,9a-dicarboxylate], the inhibition at 10 µM was 62%.

Take `CCOC(=O)C1=C(C)N[C@@](C)(C#N)[C@]2(C(=O)OCC)[C@@H](O)c3ccccc3[C@H]12` (relative stereo) [Compound IIIA-1, 4a(R,S),9a(S,R)-Diethyl 1-cyano-1,3-dimethyl-2,4a,9,9a-tetrahydro-9-hydroxy-9H-indeno[2,1-c]pyridine-4,9a-dicarboxylate]: the inhibition at 10 µM worked out at 84%.

As for `COC(=O)C1=C(C)N[C@](C)(C#N)[C@]2(C(=O)OC)[C@@H](O)c3cc(OC)ccc3[C@H]12` (relative stereo) [Compound IIIB-2, 4a(R,S),9a(S,R)-Dimethyl 1-cyano-9-hydroxy-7-methoxy-2,4a,9,9a-tetrahydro-1,3-dimethyl-9H-indeno[2,1-c]pyridine-4,9a-dicarboxylate], under “at 10^-6 M”, the inhibition at 1 µM came out at 2%.

For the origin of these results see US4605660A, “Indeno[2,1-c]pyridine compounds, and their use as calcium channel blockers” (Merck & Co., Inc., priority 1985, dated 1986).
